Data as given in patent publication US6054435A, “6-O-substituted macrolides having antibacterial activity” (priority 1999, dated 2000).
Converted amounts (≈) assume the structure as drawn.

Legend:
Assay in all cases: in vitro antibacterial activity (MIC), agar dilution
Assay type in all cases: cell-based
[1] = tested on: Streptococcus pyogenes EES61; settings: organism code LL; BHI agar, 35-37° C., 20 to 24 hours; unit assumed
Experimental: (§1) Representative compounds of the present invention were assayed in vitro for antibacterial activity as follows: Twelve petri dishes containing successive aqueous dilutions of the test compound mixed with 10 mL of sterilized Brain Heart Infusion (BHI) agar (Difco 0418-01-5) were prepared. Each plate was inoculated with 1:100 (or 1:10 for slow-growing strains, such as Micrococcus and Streptococcus) dilutions of up to 32 different microorganisms, using a Steers replicator block. […] In addition, a control plate, using BHI agar containing no test compound, was prepared and incubated at the beginning and end of each test.
(§2) An additional plate containing a compound having known susceptibility patterns for the organisms being tested and belonging to the same antibiotic class as the test compound was also prepared and incubated as a further control, as well as to provide test-to-test comparability.
(§3) After incubation, each plate was visually inspected. The minimum inhibitory concentration (MIC) was defined as the lowest concentration of drug yielding no growth, a slight haze, or sparsely isolated colonies on the inoculum spot as compared to the growth control.

[2] = tested on: Staphylococcus aureus 1775; settings: organism code GG; BHI agar, 35-37° C., 20 to 24 hours; unit assumed
Experimental: as §1, §2, §3

[3] = tested on: Staphylococcus epidermidis 3519; settings: organism code HH; BHI agar, 35-37° C., 20 to 24 hours; unit assumed
Experimental: as §1, §2, §3

[4] = tested on: Enterococcus faecium ATCC 8043; settings: organism code II; BHI agar, 35-37° C., 20 to 24 hours; unit assumed
Experimental: as §1, §2, §3

[5] = tested on: Staphylococcus aureus A5177; settings: organism code BB; BHI agar, 35-37° C., 20 to 24 hours; unit assumed
Experimental: as §1, §2, §3

Escherichia coli DC-2 = settings: organism code SS; BHI agar, 35-37° C., 20 to 24 hours; unit assumed
Experimental: as §1, §2, §3

[6] = tested on: Micrococcus luteus ATCC 4698; settings: organism code PP; BHI agar, 35-37° C., 20 to 24 hours; unit assumed
Experimental: as §1, §2, §3

[7] = tested on: Streptococcus Pneumonia GYR 1171; settings: organism code YY; BHI agar, 35-37° C., 20 to 24 hours; unit assumed
Experimental: as §1, §2, §3

[8] = tested on: Staphylococcus aureus CMX 642A; settings: organism code DD; BHI agar, 35-37° C., 20 to 24 hours; unit assumed
Experimental: as §1, §2, §3

[9] = tested on: Streptococcus Pneumonia 5979; settings: organism code ZZ; BHI agar, 35-37° C., 20 to 24 hours; unit assumed
Experimental: as §1, §2, §3

[10] = tested on: Streptococcus pyogenes 930; settings: organism code MM; BHI agar, 35-37° C., 20 to 24 hours; unit assumed
Experimental: as §1, §2, §3

Escherichia coli SS = settings: organism code RR; BHI agar, 35-37° C., 20 to 24 hours; unit assumed
Experimental: as §1, §2, §3

[11] = tested on: Streptococcus Pneumonia ATCC6303; settings: organism code XX; BHI agar, 35-37° C., 20 to 24 hours; unit assumed
Experimental: as §1, §2, §3

[12] = tested on: Streptococcus pyogenes PIU 2548; settings: organism code NN; BHI agar, 35-37° C., 20 to 24 hours; unit assumed
Experimental: as §1, §2, §3

[13] = tested on: Streptococcus agalactiae CMX 508; settings: organism code KK; BHI agar, 35-37° C., 20 to 24 hours; unit assumed
Experimental: as §1, §2, §3

[14] = tested on: Nocardia Asteroides ATCC9970; settings: organism code VV; BHI agar, 35-37° C., 20 to 24 hours; unit assumed
Experimental: as §1, §2, §3

[15] = tested on: Staphylococcus aureus CMX 553; settings: organism code FF; BHI agar, 35-37° C., 20 to 24 hours; unit assumed
Experimental: as §1, §2, §3

[16] = tested on: Staphylococcus aureus A-5278; settings: organism code CC; BHI agar, 35-37° C., 20 to 24 hours; unit assumed
Experimental: as §1, §2, §3

Escherichia coli JUHL = settings: organism code QQ; BHI agar, 35-37° C., 20 to 24 hours; unit assumed
Experimental: as §1, §2, §3

Candida albicans CCH 442 = settings: organism code TT; BHI agar, 35-37° C., 20 to 24 hours; unit assumed
Experimental: as §1, §2, §3

[17] = tested on: Streptococcus Pneumonia 5649; settings: organism code ZZA; BHI agar, 35-37° C., 20 to 24 hours; unit assumed
Experimental: as §1, §2, §3

[18] = tested on: Mycobacterium smegmatis ATCC 114; settings: organism code UU; BHI agar, 35-37° C., 20 to 24 hours; unit assumed
Experimental: as §1, §2, §3

[19] = tested on: Micrococcus luteus ATCC 9341; settings: organism code OO; BHI agar, 35-37° C., 20 to 24 hours; unit assumed
Experimental: as §1, §2, §3

[20] = tested on: Streptococcus bovis A-5169; settings: organism code JJ; BHI agar, 35-37° C., 20 to 24 hours; unit assumed
Experimental: as §1, §2, §3

[21] = tested on: Staphylococcus aureus NCTC10649M; settings: organism code EE; BHI agar, 35-37° C., 20 to 24 hours; unit assumed
Experimental: as §1, §2, §3

[22] = tested on: Staphylococcus aureus ATCC 6538P; settings: organism code AA; BHI agar, 35-37° C., 20 to 24 hours; unit assumed
Experimental: as §1, §2, §3

[23] = tested on: Haemophilis Influenzae DILL AMP R; settings: organism code WW; BHI agar, 35-37° C., 20 to 24 hours; unit assumed
Experimental: as §1, §2, §3

SMILES	MIC [1] [µg/mL]	MIC [2] [µg/mL]	MIC [3] [µg/mL]	MIC [5] [µg/mL]	MIC (Escherichia coli DC-2) [µg/mL]	MIC [6] [µg/mL]	MIC [7] [µg/mL]	MIC [8] [µg/mL]	MIC [9] [µg/mL]	MIC [10] [µg/mL]	MIC (Escherichia coli SS) [µg/mL]	MIC [11] [µg/mL]	MIC [12] [µg/mL]	MIC [13] [µg/mL]	MIC [14] [µg/mL]	MIC [15] [µg/mL]	MIC [16] [µg/mL]	MIC (Escherichia coli JUHL) [µg/mL]	MIC (Candida albicans CCH 442) [µg/mL]	MIC [18] [µg/mL]	further results
CC[C@H]1OC(=O)[C@H](C)C(=O)[C@H](C)[C@@H](O[C@@H]2O[C@H](C)C[C@H](N(C)C)[C@H]2O)[C@](C)(OC/C=C/c2cncc(-c3cccnc3)c2)C[C@@H](C)C(=O)[C@H](C)[C@H]2NC(=O)O[C@@]21C [Example 47]	0.02 (≈ 0.0252 µM)	> 100	0.1 (≈ 0.126 µM)	0.05 (≈ 0.0631 µM)	25 (≈ 31.5 µM)	0.2 (≈ 0.252 µM)	0.008 (≈ 0.0101 µM)	0.05 (≈ 0.0631 µM)	> 128	50 (≈ 63.1 µM)	0.39 (≈ 0.492 µM)	0.008 (≈ 0.0101 µM)	0.2 (≈ 0.252 µM)	0.01 (≈ 0.0126 µM)	0.05 (≈ 0.0631 µM)	0.05 (≈ 0.0631 µM)	> 100	50 (≈ 63.1 µM)	> 100	0.78 (≈ 0.984 µM)	MIC [4]: 0.05 µg/mL (≈ 0.0631 µM); MIC [17]: 0.5 µg/mL (≈ 0.631 µM); MIC [19]: 0.01 µg/mL (≈ 0.0126 µM); MIC [20]: 0.01 µg/mL (≈ 0.0126 µM); MIC [21]: 0.1 µg/mL (≈ 0.126 µM); MIC [22]: 0.05 µg/mL (≈ 0.0631 µM)
CC[C@H]1OC(=O)[C@H](C)C(=O)[C@H](C)[C@@H](O[C@@H]2O[C@H](C)C[C@H](N(C)C)[C@H]2O)[C@](C)(OC/C=C/c2cncc(-c3cncc4ccccc34)c2)C[C@@H](C)C(=O)[C@H](C)[C@H]2NC(=O)O[C@@]21C [Example 48]	0.05 (≈ 0.0593 µM)	> 100	0.2 (≈ 0.237 µM)	0.2 (≈ 0.237 µM)	> 100	0.1 (≈ 0.119 µM)	≤ 0.004	0.2 (≈ 0.237 µM)	16 (≈ 19 µM)	100 (≈ 119 µM)	0.78 (≈ 0.925 µM)	≤ 0.004	0.2 (≈ 0.237 µM)	0.02 (≈ 0.0237 µM)	0.05 (≈ 0.0593 µM)	0.2 (≈ 0.237 µM)	> 100	> 100	> 100	0.78 (≈ 0.925 µM)	MIC [4]: 0.05 µg/mL (≈ 0.0593 µM); MIC [17]: 0.25 µg/mL (≈ 0.297 µM); MIC [19]: 0.05 µg/mL (≈ 0.0593 µM); MIC [20]: 0.02 µg/mL (≈ 0.0237 µM); MIC [21]: 0.2 µg/mL (≈ 0.237 µM); MIC [22]: 0.2 µg/mL (≈ 0.237 µM)
CC[C@H]1OC(=O)[C@H](C)C(=O)[C@H](C)[C@@H](O[C@@H]2O[C@H](C)C[C@H](N(C)C)[C@H]2O)[C@](C)(OCC#Cc2ccc(-c3cccc(F)c3)s2)C[C@@H](C)C(=O)[C@H](C)[C@H]2NC(=O)O[C@@]21C [Example 15]	0.05 (≈ 0.0615 µM)	50 (≈ 61.5 µM)	0.2 (≈ 0.246 µM)	0.1 (≈ 0.123 µM)	> 100	0.1 (≈ 0.123 µM)	0.015 (≈ 0.0185 µM)	0.2 (≈ 0.246 µM)	0.25 (≈ 0.308 µM)	3.1 (≈ 3.81 µM)	0.39 (≈ 0.48 µM)	0.015 (≈ 0.0185 µM)	0.2 (≈ 0.246 µM)	0.05 (≈ 0.0615 µM)	0.2 (≈ 0.246 µM)	0.1 (≈ 0.123 µM)	50 (≈ 61.5 µM)	> 100	> 100	0.39 (≈ 0.48 µM)	MIC [17]: 0.25 µg/mL (≈ 0.308 µM); MIC [19]: 0.05 µg/mL (≈ 0.0615 µM); MIC [23]: 2 µg/mL (≈ 2.46 µM); MIC [20]: 0.05 µg/mL (≈ 0.0615 µM); MIC [21]: 0.2 µg/mL (≈ 0.246 µM); MIC [22]: 0.1 µg/mL (≈ 0.123 µM)
CC[C@H]1OC(=O)[C@H](C)C(=O)[C@H](C)[C@@H](O[C@@H]2O[C@H](C)C[C@H](N(C)C)[C@H]2O)[C@](C)(OCC#Cc2ccc(-c3cccc(OC)c3)s2)C[C@@H](C)C(=O)[C@H](C)[C@H]2NC(=O)O[C@@]21C [Example 14]	0.01 (≈ 0.0121 µM)	50 (≈ 60.6 µM)	0.1 (≈ 0.121 µM)	0.1 (≈ 0.121 µM)	> 100	0.02 (≈ 0.0242 µM)	0.03 (≈ 0.0364 µM)	0.1 (≈ 0.121 µM)	1 (≈ 1.21 µM)	1.56 (≈ 1.89 µM)	0.39 (≈ 0.473 µM)	0.03 (≈ 0.0364 µM)	0.1 (≈ 0.121 µM)	0.01 (≈ 0.0121 µM)	0.1 (≈ 0.121 µM)	0.1 (≈ 0.121 µM)	> 100	> 100	> 100	0.2 (≈ 0.242 µM)	MIC [17]: 0.25 µg/mL (≈ 0.303 µM); MIC [19]: 0.01 µg/mL (≈ 0.0121 µM); MIC [23]: 2 µg/mL (≈ 2.42 µM); MIC [20]: ≤ 0.005 µg/mL; MIC [21]: 0.1 µg/mL (≈ 0.121 µM); MIC [22]: 0.1 µg/mL (≈ 0.121 µM)
CC[C@H]1OC(=O)[C@H](C)C(=O)[C@H](C)[C@@H](O[C@@H]2O[C@H](C)C[C@H](N(C)C)[C@H]2O)[C@](C)(OC/C=C/c2cncc(-c3cnc4ccccc4c3)c2)C[C@@H](C)C(=O)[C@H](C)[C@H]2NC(=O)O[C@@]21C [Example 44]	0.01 (≈ 0.0119 µM)	> 100	0.1 (≈ 0.119 µM)	0.1 (≈ 0.119 µM)	50 (≈ 59.3 µM)	0.1 (≈ 0.119 µM)	≤ 0.004	0.1 (≈ 0.119 µM)	8 (≈ 9.49 µM)	6.2 (≈ 7.35 µM)	0.2 (≈ 0.237 µM)	≤ 0.004	0.1 (≈ 0.119 µM)	0.05 (≈ 0.0593 µM)	0.1 (≈ 0.119 µM)	0.05 (≈ 0.0593 µM)	> 100	100 (≈ 119 µM)	> 100	0.39 (≈ 0.463 µM)	MIC [4]: 0.05 µg/mL (≈ 0.0593 µM); MIC [19]: 0.01 µg/mL (≈ 0.0119 µM); MIC [23]: 2 µg/mL (≈ 2.37 µM); MIC [20]: 0.01 µg/mL (≈ 0.0119 µM); MIC [21]: 0.2 µg/mL (≈ 0.237 µM); MIC [22]: 0.1 µg/mL (≈ 0.119 µM)
